Patent US20240418701A1, “SINGLE MOLECULE IDEN[…] A REACTIVE HETERO-NANOPORE” (priority 2021, published 2024)
Like-named read-outs stand apart in the source and are kept apart here.

Experiments:
M2 MspA = M2 MspA (Mycolicibacterium smegmatis, UniProt A0QR29, D117N/D118N/D120N/D145R/D161R/E166K); experiment: NMP sensing performed with M2 MspA (control without PBA); type: binding, Mycobacterium smegmatis; conditions: NMP 1 mM in cis, +200 mV
Description: FIG. 44: NMP sensing performed with M2 MspA. (a-d) Representative traces of (a) CMP, (b) UMP, (c) AMP, (d) GMP sensing performed with M2 MspA. All measurements were carried out as described in Methods in Example 2 in a 1.5 M KCl buffer (1.5 M KCl, 10 mM MOPS, pH 7.0). A +200 mV bias was continually applied. NMPs were added to cis with a final concentration of 1 mM for each analyte.
(§1) NMPs consist of a ribose, a phosphate group and a nucleobase, serving as monomeric units of RNA. […] Experimentally, single channel recording was performed using MspA-PBA in a 1.5 M KCl buffer (1.5 M KCl, 10 mM MOPS, pH 7.0) (Methods in Example 2). A transmembrane potential of +200 mV was continually applied. Four canonical NMPs, adenine mononucleotide (AMP), guanine mononucleotide (GMP), cytosine mononucleotide (CMP) and uracil mononucleotide (UMP) were tested as analytes (FIG. 33d). Either type of NMP was added to cis at a final concentration of 300 μM. Subsequently, successive resistive pulses caused by either type of NMP were immediately observed (FIG. 33d). However, no events were observed when M2 MspA was tested, confirming that the PBA located at the pore constriction is critical in the generation of NMP sensing events (FIG. 44). At this condition, ˜1800 events/h were obtained from each pore. The pore could normally withstand a few hours of continuous measurement. Deoxyribonucleoside monophosphate (dNMP) fails to report any event when sensed by MspA-PBA (FIG. 45). This is expected because dNMPs have no cis-diol structure and can't form the boronate ester which is necessary for sensing. The molecular mechanism of sensing which results from reversible covalent bond formation between an NMP and the PBA at the pore constriction is thus confirmed.

[1] = biological target: T1, MspA-PBA (phenylboronic acid modified hetero-octameric (N90C)1(M2)7 MspA) (Mycolicibacterium smegmatis, UniProt A0QR29, D117C/D118N/D120N/D145R/D161R/E166K); type: binding, Mycobacterium smegmatis; conditions: for % Ib (percentage blockage) / S.D. (noise amplitude of blockage level) / τoff (mean dwell time) / τon (mean inter-event interval): N=3; for Calibration coefficient δ (NMP binding events per unit concentration per min): sole NMP 300 μM in cis
T1 construct: H6 (hexa-histidine) (C); 3-(maleimide) phenylboronic acid (MPBA) adduct on the thiol of Cys90; made in house; host or cells: E. coli BL21 (DE3) pLysS, co-expression from pETDuet-1
Description: FIG. 46: Definition of event parameters. […] The measurement was carried out as described in Methods in Example 2. The chambers were filled with a 1.5 M KCl buffer (1.5 M KCl, 10 mM MOPS, pH 7.0). A transmembrane potential of +200 mV was continually applied. AMP was added to cis with a final concentration of 300 μM. The open pore current (Ip), the residual current (Ib), the dwell time (τoff) and the inter-event duration (τon) are defined as marked on the trace. The percentage blockage (% Ib) is defined as (Ip−Ib)/Ip. The noise amplitude (S.D.) is defined as the standard deviation of the blockage level.
as §1
To describe NMP sensing events quantitatively, the event dwell time (τoff), the inter-event interval (τon), the percentage blockage (% Ib=(Ip−Ib)/Ip) and the noise amplitude (S.D.) were derived as described in FIG. 46. Generally, the histograms of τoff and τon show an exponential distribution, and could be fitted to derive the mean time constants τoff or τon, respectively. The histograms of % Ib and S.D. show a Gaussian distribution, which could be fitted to derive the mean percentage blockage % Ib and S.D., respectively. During NMP sensing, by varying the NMP concentrations in cis, the reciprocal of dwell time (1/τoff) remains constant, consistent with a unimolecular dissociation mechanism. Whereas the reciprocal of the inter-event interval (1/τon) linearly correlates with the NMP concentration in cis (Tables 8-11, FIG. 47-50), consistent with a bimolecular model. The dependence of the applied voltage during NMP sensing was investigated using AMP as a representative analyte. […] This is expected because in a pH 7.0 buffer, the phosphate group of NMP is negatively charged and the electrophoretic force applied on the NMP analyte can strongly regulate the rate of event appearance and the event dwell time.

[2] = NMP 100 μM in cis, +200 mV, three independent measurements
[3] = NMP 200 μM in cis, +200 mV, three independent measurements
[4] = NMP 300 μM in cis, +200 mV, three independent measurements
[5] = NMP 400 μM in cis, +200 mV, three independent measurements
[6] = NMP 500 μM in cis, +200 mV, three independent measurements
[7] = +200 mV, three independent measurements
[8] = voltage series: +40 mV, AMP 500 μM in cis
[9] = voltage series: +80 mV, AMP 500 μM in cis
[10] = voltage series: +120 mV, AMP 500 μM in cis
[11] = voltage series: +160 mV, AMP 500 μM in cis
[12] = voltage series: +200 mV, AMP 500 μM in cis

M2 MspA, sequence (A0QR29 28-211 D117N/D118N/D120N/D145R/D161R/E166K): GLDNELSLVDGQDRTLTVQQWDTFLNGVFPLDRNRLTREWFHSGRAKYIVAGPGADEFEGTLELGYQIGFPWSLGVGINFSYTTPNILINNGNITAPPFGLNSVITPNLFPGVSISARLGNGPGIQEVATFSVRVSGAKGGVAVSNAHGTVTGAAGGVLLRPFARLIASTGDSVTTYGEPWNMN

SMILES | binding events with M2 MspA (M2 MspA) | 1/τoff [1, 2] | 1/τon [1, 2] | 1/τoff [1, 3] | 1/τon [1, 3] | % Ib (percentage blockage) ([1]; NMP 300 μM in cis, +200 mV) | S.D. (noise amplitude of blockage level) ([1]; NMP 300 μM in cis, +200 mV) | τoff (mean dwell time) ([1]; NMP 300 μM in cis, +200 mV) | τon (mean inter-event interval) ([1]; NMP 300 μM in cis, +200 mV) | 1/τoff [1, 4] | 1/τon [1, 4] | 1/τoff [1, 5] | 1/τon [1, 5] | 1/τoff [1, 6] | 1/τon [1, 6] | Calibration coefficient δ (NMP binding events per unit concentration per min) [1, 7] | also measured
Nc1ncnc2c1ncn2[C@@H]1O[C@H](COP(=O)(O)O)[C@@H](O)[C@H]1O [AMP, adenosine-5′-monophosphate] | No binding events were observed | 14.9 ± 0.5 s⁻¹ | 0.54 ± 0.11 s⁻¹ | 15.1 ± 0.2 s⁻¹ | 0.82 ± 0.05 s⁻¹ | 10.89±0.14% | 3.14 ± 0.14 pA | 72.76 ± 2.07 ms | 979.5 ± 106.1 ms | 13.8 ± 0.4 s⁻¹ | 1.03 ± 0.11 s⁻¹ | 14.6 ± 1.1 s⁻¹ | 1.19 ± 0.08 s⁻¹ | 14.4 ± 1.8 s⁻¹ | 1.39 ± 0.07 s⁻¹ | 0.21 ± 0.02 µM⁻¹ min⁻¹ | % Ib (percentage blockage) ([1]; NMP 300 μM in cis, +200 mV, listed as A): 10.89 ± 0.14%; sensing events with MspA-PBA ([1]; analyte 1 mM in cis, +200 mV): Successive appearance of AMP sensing events was observed; 1/τoff [1, 8]: 30.5 ± 1.7 s⁻¹; 1/τon [1, 8]: 0.45 ± 0.03 s⁻¹; 1/τoff [1, 9]: 27.6 ± 1.9 s⁻¹; 1/τon [1, 9]: 0.71 ± 0.12 s⁻¹; 1/τoff [1, 10]: 24.2 ± 2.1 s⁻¹; 1/τon [1, 10]: 1.13 ± 0.08 s⁻¹; 1/τoff [1, 11]: 18.0 ± 1.4 s⁻¹; 1/τon [1, 11]: 1.23 ± 0.11 s⁻¹; 1/τoff [1, 12]: 14.5 ± 1.8 s⁻¹; 1/τon [1, 12]: 1.38 ± 0.08 s⁻¹
Nc1ccn([C@@H]2O[C@H](COP(=O)(O)O)[C@@H](O)[C@H]2O)c(=O)n1 [CMP, Cytidine-5′-monophosphate] | No binding events were observed | 19.0 ± 1.9 s⁻¹ | 0.30 ± 0.06 s⁻¹ | 20.9 ± 0.3 s⁻¹ | 0.47 ± 0.05 s⁻¹ | 7.1±0.2% | 3.23 ± 0.09 pA | 47.6 ± 0.9 ms | 1511.6 ± 108.3 ms | 21.0 ± 0.4 s⁻¹ | 0.66 ± 0.05 s⁻¹ | 20.5 ± 0.6 s⁻¹ | 0.86 ± 0.05 s⁻¹ | 20.6 ± 1.1 s⁻¹ | 1.01 ± 0.13 s⁻¹ | 0.133 ± 0.010 µM⁻¹ min⁻¹ | % Ib (percentage blockage) ([1]; NMP 300 μM in cis, +200 mV, listed as C): 7.1 ± 0.2%
Nc1nc2c(ncn2[C@@H]2O[C@H](COP(=O)(O)O)[C@@H](O)[C@H]2O)c(=O)[nH]1 [GMP, guanosine-5′-monophosphate] | No binding events were observed | 11.5 ± 0.9 s⁻¹ | 0.02 ± 0.07 s⁻¹ | 10.6 ± 1.4 s⁻¹ | 0.50 ± 0.12 s⁻¹ | 11.8±0.2% | 3.02 ± 0.13 pA | 96.3 ± 10.4 ms | 1473.1 ± 44.4 ms | 10.5 ± 1.1 s⁻¹ | 0.68 ± 0.02 s⁻¹ | 10.2 ± 0.2 s⁻¹ | 0.83 ± 0.04 s⁻¹ | 11.4 ± 1.3 s⁻¹ | 1.00 ± 0.04 s⁻¹ | 0.136 ± 0.004 µM⁻¹ min⁻¹ | % Ib (percentage blockage) ([1]; NMP 300 μM in cis, +200 mV, listed as G): 11.8 ± 0.2%
